In patent US20260285850A1, “SUBSTITUTED OXAZOLIDINONES AND IMIDAZOLINONES AS HERBICIDES” (FMC CORPORATION, priority 2023, published 2026):

What was measured:
Format in all cases: in vivo
[1] = system: blackgrass (Alopecurus myosuroides); experiment: Test A preemergence soil spray, visual injury rating 0-100; settings: 10 days
Method in brief: (§1)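 Plants in a loam and sand soil blend were treated with each test chemical, in a non-phytotoxic solvent system including surfactant, either sprayed on seeded soil before emergence or applied after emergence at the one- to two-leaf stage. Ten days later in the greenhouse, plants were compared with untreated controls and visually rated from 0 (no effect) to 100 (complete control).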

kochia (Bassia scoparia) [2] = experiment: as above; settings: 10 days
Method in brief: as §1

[3] = system: barnyardgrass (Echinochloa crus-galli); experiment: as above; settings: 10 days
Method in brief: as §1

corn (Zea mays) [4] = experiment: as above; settings: 10 days
Method in brief: as §1

[5] = system: wheat (Triticum aestivum); experiment: as above; settings: 10 days
Method in brief: as §1

[6] = system: oat, wild (wild oat, Avena fatua); experiment: as above; settings: 10 days
Method in brief: as §1

[7] = system: ragweed (common ragweed, Ambrosia artemisiifolia); experiment: as above; settings: 10 days
Method in brief: as §1

soybean (Glycine max) [8] = experiment: as above; settings: 10 days
Method in brief: as §1

[9] = system: palmer (palmer amaranth, palmer pigweed, Amaranthus palmeri); experiment: as above; settings: 10 days
Method in brief: as §1

[10] = system: ryegrass, Italian (italian ryegrass, Lolium multiflorum); experiment: as above; settings: 10 days
Method in brief: as §1

[11] = system: green foxtail (Setaria viridis); experiment: as above; settings: 10 days
Method in brief: as §1

[12] = system: sedge, umbrella (small-flower umbrella sedge, Cyperus difformis); experiment: Test B flooded paddy test, visual plant response rating 0-100; settings: 250 g ai/ha, Flood, applied to paddy water, evaluated after 13 days
Method in brief: (§2)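 Visual evaluation after 13 days. Water-applied treatment, 3 cm flood depth held constant, plants at 2-leaf stage at treatment.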

[13] = system: ducksalad (Heteranthera limosa); experiment: as above; settings: 250 g ai/ha, Flood, applied to paddy water, evaluated after 13 days
Method in brief: as §2

[14] = system: barnyardgrass (Echinochloa crusgalli); experiment: as above; settings: 250 g ai/ha, Flood, applied to paddy water, evaluated after 13 days
Method in brief: as §2

rice (Oryza sativa) = experiment: as above; settings: 250 g ai/ha, Flood, applied to paddy water, evaluated after 13 days
Method in brief: as §2

[15] = system: blackgrass (Alopecurus myosuroides); experiment: Test A postemergence application, visual injury rating 0-100
Method in brief: as §1

kochia (Bassia scoparia) [16] = experiment: as above
Method in brief: as §1

[17] = system: barnyardgrass (Echinochloa crus-galli); experiment: as above
Method in brief: as §1

corn (Zea mays) [18] = experiment: as above
Method in brief: as §1

[19] = system: wheat (Triticum aestivum); experiment: as above
Method in brief: as §1

[20] = system: oat, wild (wild oat, Avena fatua); experiment: as above
Method in brief: as §1

[21] = system: galium (catchweed bedstraw, Galium aparine); experiment: as above
Method in brief: as §1

[22] = system: ragweed (common ragweed, Ambrosia artemisiifolia); experiment: as above
Method in brief: as §1

soybean (Glycine max) [23] = experiment: as above
Method in brief: as §1

[24] = system: palmer (palmer amaranth, palmer pigweed, Amaranthus palmeri); experiment: as above
Method in brief: as §1

[25] = system: ryegrass, Italian (italian ryegrass, Lolium multiflorum); experiment: as above
Method in brief: as §1

[26] = system: horseweed (Erigeron canadensis); experiment: as above
Method in brief: as §1

[27] = system: green foxtail (Setaria viridis); experiment: as above
Method in brief: as §1

[28] = 62 g ai/ha, 0 = no effect, 100 = complete control
[29] = 62 g ai/ha, postemergence, 10 days, 0 = no effect, 100 = complete control
[30] = Postemergence, 16 g ai/ha, greenhouse 10 days, 0 no effect, 100 complete control

SMILES: C=CC1(C(=O)NC2CC(C(=O)OC)C2)CN(c2cc(F)cc(F)c2)C(=O)O1 (stereo not shown) [Compound 173]
- Blackgrass plant response rating ([1]; 16 g ai/ha, 0 to 100 scale): 90
- Blackgrass plant response rating (0-100) [1, 28]: 90
- Kochia plant response rating (kochia (Bassia scoparia) [2]; 16 g ai/ha, 0 to 100 scale): 10
- Kochia plant response rating (0-100) (kochia (Bassia scoparia) [2]; [28]): 80
- Barnyardgrass plant response rating ([3]; 16 g ai/ha, 0 to 100 scale): 40
- Barnyardgrass plant response rating (0-100) [3, 28]: 100
- Corn plant response rating (corn (Zea mays) [4]; 16 g ai/ha, 0 to 100 scale): 50
- Corn plant response rating (0-100) (corn (Zea mays) [4]; [28]): 90
- Wheat plant response rating ([5]; 16 g ai/ha, 0 to 100 scale): 90
- Wheat plant response rating (0-100) [5, 28]: 100
- Oat, Wild plant response rating ([6]; 16 g ai/ha, 0 to 100 scale): 70
- Oat, Wild plant response rating (0-100) [6, 28]: 90
- Ragweed plant response rating ([7]; 16 g ai/ha, 0 to 100 scale): 0
- Ragweed plant response rating (0-100) [7, 28]: 0
- Soybean plant response rating (soybean (Glycine max) [8]; 16 g ai/ha, 0 to 100 scale): 30
- Soybean plant response rating (0-100) (soybean (Glycine max) [8]; [28]): 70
- Pigweed, Palmer plant response rating ([9]; 16 g ai/ha, 0 to 100 scale): 20
- Pigweed, Palmer plant response rating (0-100) [9, 28]: 90
- Ryegrass, Italian plant response rating ([10]; 16 g ai/ha, 0 to 100 scale): 80
- Ryegrass, Italian plant response rating (0-100) [10, 28]: 90
- Foxtail, Green plant response rating ([11]; 16 g ai/ha, 0 to 100 scale): 90
- Foxtail, Green plant response rating (0-100) [11, 28]: 100
- Plant response rating, Sedge, Umbrella (0 to 100 scale, 0 is no effect and 100 is complete control) [12]: 100
- Plant response rating, Ducksalad (0 to 100 scale, 0 is no effect and 100 is complete control) [13]: 95
- Plant response rating, Barnyardgrass (0 to 100 scale, 0 is no effect and 100 is complete control) [14]: 90
- Plant response rating, Rice (0 to 100 scale, 0 is no effect and 100 is complete control) (rice (Oryza sativa)): 75
- Blackgrass plant response rating (0-100) [15, 29]: 90
- Blackgrass plant response rating (0 to 100 scale) [15, 30]: 90
- Kochia plant response rating (0-100) (kochia (Bassia scoparia) [16]; [29]): 90
- Kochia plant response rating (0 to 100 scale) (kochia (Bassia scoparia) [16]; [30]): 90
- Barnyardgrass plant response rating (0-100) [17, 29]: 90
- Barnyardgrass plant response rating (0 to 100 scale) [17, 30]: 80
- Corn plant response rating (0-100) (corn (Zea mays) [18]; [29]): 100
- Corn plant response rating (0 to 100 scale) (corn (Zea mays) [18]; [30]): 100
- Wheat plant response rating (0-100) [19, 29]: 90
- Wheat plant response rating (0 to 100 scale) [19, 30]: 90
- Oat, Wild plant response rating (0-100) [20, 29]: 90
- Oat, Wild plant response rating (0 to 100 scale) [20, 30]: 90
- Galium plant response rating (0-100) [21, 29]: 80
- Galium plant response rating (0 to 100 scale) [21, 30]: 80
- Ragweed plant response rating (0-100) [22, 29]: 80
- Ragweed plant response rating (0 to 100 scale) [22, 30]: 0
- Soybean plant response rating (0-100) (soybean (Glycine max) [23]; [29]): 50
- Soybean plant response rating (0 to 100 scale) (soybean (Glycine max) [23]; [30]): 50
- Pigweed, Palmer plant response rating (0-100) [24, 29]: 90
- Pigweed, Palmer plant response rating (0 to 100 scale) [24, 30]: 90
- Ryegrass, Italian plant response rating (0-100) [25, 29]: 90
- Ryegrass, Italian plant response rating (0 to 100 scale) [25, 30]: 80
- Horseweed plant response rating (0-100) [26, 29]: 50
- Horseweed plant response rating (0 to 100 scale) [26, 30]: 0
- Foxtail, Green plant response rating (0-100) [27, 29]: 90
- Foxtail, Green plant response rating (0 to 100 scale) [27, 30]: 90
